Experimental data from the supplement of paper PMC10307832.

What was measured:
Test in all cases: relative viability (nuclei count vs DMSO), 5 days (fraction); higher = more cells survive
Irinotecan + Olaparib = compound: CCc1c2c(nc3ccc(OC(=O)N4CCC(N5CCCCC5)CC4)cc13)-c1cc3c(c(=O)n1C2)COC(=O)[C@]3(O)CC [Irinotecan] + O=C(c1cc(Cc2n[nH]c(=O)c3ccccc23)ccc1F)N1CCN(C(=O)C2CC2)CC1 [Olaparib] (partner 8 µM)
Summary of the method: (§1)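 Relative viability equals treated-well nuclei counts divided by vehicle-well nuclei counts. Counts came from 4× images of lung cancer cell lines grown in 1536-well plates for 5 days after pin-tool dosing on the day after seeding. Dosing used one drug alone or a fixed anchor-drug dose plus five library-drug doses (not always all listed) in √10 steps, and values are medians of duplicate plates.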

MK-8033 + Crizotinib = compound: Cn1cc(-c2cnc3ccc4ccc(CS(=O)(=O)NCc5ccccn5)cc4c(=O)c3c2)cn1 [MK-8033] + C[C@@H](Oc1cc(-c2cnn(C3CCNCC3)c2)cnc1N)c1c(Cl)ccc(F)c1Cl [Crizotinib] (partner 1 µM)
Summary of the method: as §1

RU-SKI 43 + Pictilisib = compound: CC[C@@H](C)CNCC(=O)N1CCC2=C([C@@H]1COC3=CC=CC(=C3)C)C=CS2 [RU-SKI 43] + CS(=O)(=O)N1CCN(Cc2cc3nc(-c4cccc5[nH]ncc45)nc(N4CCOCC4)c3s2)CC1 [Pictilisib] (partner 1 µM)
Summary of the method: as §1

Irinotecan + Phenformin = compound: CCc1c2c(nc3ccc(OC(=O)N4CCC(N5CCCCC5)CC4)cc13)-c1cc3c(c(=O)n1C2)COC(=O)[C@]3(O)CC [Irinotecan] + N=C(N)NC(=N)NCCc1ccccc1 [Phenformin] (partner 250 µM)
Summary of the method: as §1

Cell Line | relative viability (Irinotecan + Olaparib; first compound 0.6325 µM) | relative viability (Irinotecan + Olaparib; first compound 2 µM) | relative viability (Irinotecan + Olaparib; first compound 6.325 µM) | relative viability (Irinotecan + Olaparib; first compound 20 µM) | relative viability (MK-8033 + Crizotinib; first compound 0.02 µM) | relative viability (MK-8033 + Crizotinib; first compound 0.06325 µM) | relative viability (MK-8033 + Crizotinib; first compound 0.2 µM) | relative viability (MK-8033 + Crizotinib; first compound 0.6325 µM) | relative viability (MK-8033 + Crizotinib; first compound 2 µM) | relative viability (RU-SKI 43 + Pictilisib; first compound 0.1 µM) | relative viability (RU-SKI 43 + Pictilisib; first compound 0.3162 µM) | relative viability (RU-SKI 43 + Pictilisib; first compound 1 µM) | relative viability (RU-SKI 43 + Pictilisib; first compound 3.162 µM) | relative viability (RU-SKI 43 + Pictilisib; first compound 10 µM) | relative viability (Irinotecan + Phenformin; first compound 0.6325 µM) | relative viability (Irinotecan + Phenformin; first compound 2 µM) | relative viability (Irinotecan + Phenformin; first compound 6.325 µM) | relative viability (Irinotecan + Phenformin; first compound 20 µM)
LCLC-103H | 0.469 | 0.483 | 0.407 | 0.444 | 1.02 | 0.926 | 0.99 | 1.06 | 1.04 | 0.663 | 0.629 | 0.712 | 0.624 | 0.691 | 0.344 | 0.358 | 0.256 | 0.321
LK-2 | 0.481 | 0.426 | 0.201 | 0.235 | 0.228 | 0.226 | 0.244 | 0.23 | 0.25 | 0.596 | 0.809 | 0.686 |  | 0.532 | 0.419 | 0.63 | 0.315 | 0.307
LOU-NH91 | 0.712 | 0.477 | 0.321 | 0.153 | 0.724 |  | 0.715 | 0.732 | 0.75 | 0.504 | 0.483 | 0.547 | 0.485 | 0.543 | 0.617 | 0.639 | 0.377 | 0.391
LU99A | 0.126 | 0.126 | 0.119 | 0.15 | 0.692 | 0.542 | 0.619 | 0.491 | 0.525 | 0.312 | 0.304 | 0.321 | 0.333 | 0.292 | 0.369 | 0.37 | 0.208 | 0.301
LXF-289 | 0.211 | 0.215 | 0.162 | 0.158 | 0.738 | 0.77 | 0.777 | 0.819 | 0.773 | 0.828 | 0.809 | 0.832 | 0.794 | 0.744 | 0.5 | 0.46 | 0.262 | 0.162
NCI-H23 | 0.245 | 0.254 | 0.207 | 0.2 | 0.446 | 0.391 | 0.487 | 0.468 | 0.552 | 0.441 | 0.497 | 0.536 | 0.492 | 0.468 | 0.586 | 0.647 | 0.221 | 0.252
NCI-H322M | 0.135 | 0.642 | 0.538 | 0.235 | 0.855 | 0.778 | 0.835 | 0.939 | 0.954 | 0.586 | 0.469 | 0.559 | 0.51 | 0.482 | 0.745 | 0.758 | 0.515 | 0.265
NCI-H358 | 0.215 | 0.286 | 0.158 | 0.109 | 0.493 | 0.503 | 0.595 | 0.434 | 0.508 | 0.291 | 0.315 | 0.332 | 0.336 | 0.286 | 0.273 | 0.278 | 0.125 | 0.0851
NCI-H441 | 0.243 | 0.241 | 0.256 | 0.229 | 0.753 | 0.646 | 0.681 | 0.778 | 0.691 | 0.466 | 0.491 | 0.47 | 0.609 | 0.468 | 0.566 | 0.759 | 0.299 | 0.224
NCI-H460 |  | 0.214 | 0.0942 | 0.125 | 0.949 | 0.793 | 0.879 | 0.822 | 0.844 | 0.335 | 0.35 | 0.45 | 0.263 | 0.238 | 0.21 | 0.272 | 0.0796 | 0.0368
NCI-H520 | 0.23 | 0.277 | 0.309 | 0.145 | 0.797 | 0.678 | 0.663 | 0.59 | 0.78 | 0.279 | 0.326 | 0.385 | 0.456 | 0.306 | 0.542 | 0.649 | 0.317 | 0.258
NCI-H596 | 0.638 | 0.707 | 0.64 | 0.828 | 0.913 | 0.941 | 0.921 | 0.991 | 1.01 | 0.379 | 0.43 | 0.42 | 0.414 | 0.57 | 0.699 | 0.83 | 0.784 | 0.745
NCI-H647 | 0.194 | 0.205 | 0.14 | 0.0986 | 1.03 | 0.891 | 0.959 | 0.919 | 0.928 | 0.392 |  | 0.547 | 0.428 | 0.412 | 0.463 | 0.644 | 0.161 | 0.104
NCI-H650 | 0.181 | 0.199 | 0.185 | 0.198 | 0.648 | 0.753 | 1 | 0.778 | 0.712 | 0.947 | 0.793 | 0.829 |  | 0.926 | 0.36 | 0.409 | 0.239 | 0.248
NCI-H661 | 0.583 | 0.556 | 0.396 | 0.233 | 0.991 |  | 1.02 | 0.948 | 0.903 | 0.432 | 0.409 | 0.484 | 0.355 | 0.414 | 0.254 | 0.329 | 0.277 | 0.191
NCI-H727 | 0.723 | 0.454 | 0.66 | 0.656 | 0.811 | 0.677 | 0.754 | 0.886 | 0.792 | 0.31 | 0.305 | 0.438 | 0.497 | 0.377 | 0.464 | 0.611 | 0.524 | 0.413
NCI-H838 | 0.632 | 0.441 | 0.238 | 0.18 | 0.807 | 0.757 | 0.884 | 0.804 | 0.787 | 0.471 | 0.434 | 0.544 | 0.444 | 0.445 | 0.661 | 0.587 | 0.312 | 0.202
